Measured values taken from patent publication US20220117940A1, “COMPOSITION FOR INCREASING PREGNANCY RATE OF RUMINANTS AND PREPARATION METHOD AND APPLICATION THEREOF” (CHINA AGRICULTURAL UNIVERSITY, priority 2020, published 2022).
Marks after values point to notes of the source that are not given here.

How the values were obtained:
[1] = test system: Holstein cows exposed to natural ovulation; test: Pregnancy and calving rates of cows exposed to natural ovulation with melatonin injection; type: in vivo
Procedure: (§1) 50 to 60 days after the insemination, the pregnancy tests were performed on the Holstein cows by means of rectal examination. Alternatively, 32 days after the insemination, the pregnancy rates were calculated by means of B-scan ultrasonography and pregnancy detection kits.

[2] = Serum MT concentration after melatonin injection in cows exposed to ovsynch TAI (liquid chromatography); conditions: melatonin injected with last dose of GnRH, PG-PG-GnRH-PG-GnRH ovsynch TAI, mean ± standard error, P<0.05 vs no melatonin
[3] = test system: cows exposed to TAI or natural ovulation; test: Pregnancy and calving rates of first insemination in cows (TAI or natural ovulation) with melatonin injection; type: in vivo, Holstein cows
Procedure: as §1

[4] = test system: Holstein cows exposed to TAI; test: Pregnancy and calving rates of cows exposed to ovsynch TAI with melatonin injection; type: in vivo
Procedure: A melatonin injection of 2-3 mL was injected in combination with the injection of GnRH of ovsynch TAI in cows (as shown in FIG. 1), with B-scan pregnancy tests on Days 32-35, or pregnancy tests by recto-vaginal technique on Day 60. The pregnancy rates were calculated.
2 mL of the injection prepared in Example 1 was administrated together with the last injection of GnRH to multipara Holstein cows (1-3 pregnancies) exposed to postpartum ovsynch TAI. In this process, a randomized administration approach was used, for example administer to every other cow in which the first cow was administrated, the second was not administrated, the third was administrated, and so on.
as §1

Holstein cows = test: Serum reproductive hormone levels after melatonin injection in cows exposed to ovsynch TAI; type: in vivo; conditions: mean ± standard error; for P (progesterone) levels: pregnant cows, Day 30 of pregnancy; for P (progesterone) levels / E2 (estradiol) levels / LH levels: P<0.05; for E2 (estradiol) levels / LH levels / FSH levels: serum; for E2 (estradiol) levels / LH levels: 8 hours after injection of GnRH plus melatonin; for FSH levels: after melatonin with last dose of GnRH, no significant change (P>0.05)
Source text: The process is substantially same as that of Example 2, except that blood was collected at each stage from ovsynch TAI to pregnancy tests, in order to determine the changes in relevant reproductive hormones in ovulating cows.

mouse = conditions: 5 mg/kg injected before the MT1 receptor peak; cited from earlier work
[5] = first insemination, TAI plus natural ovulation, of 162

## COc1ccc2[nH]cc(CCNC(C)=O)c2c1 [Melatonin, N-acetyl-5-methoxytryptamine]
[1]; 14.60/26.25
  Increase of pregnancy rate relative to control: more than 55.62%
[1]; P<0.05 vs control
  Calving rate: 29.58%^A
  Pregnancy rate: 40.85%^A
[1]; of 71 cows
  Number of calves: 21
  Number of pregnant cows: 29
[2]
  MT levels in blood (serum): 4.35±0.53
[2]; listed as MT
  MT levels in blood (serum): 4.3465±0.5286
[3]; TAI or natural ovulation, 11.85/26.42
  Increase of pregnancy rate relative to control: more than 44.85%
[3]; TAI plus natural ovulation, P<0.05 vs control
  Pregnancy rate of first insemination: 38.27%^a
[3]; first insemination, TAI plus natural ovulation, P<0.05 vs control
  Calving rate: 27.16%^a
[3]; [5]
  Number of calves: 44
  Number of pregnant cows: 62
[4]; TAI, 2 mL of 15 mg/mL injection with last GnRH, P<0.05 vs control
  Pregnancy rate: 36.26%^a
[4]; TAI, 2 mL of 15 mg/mL injection with last GnRH, of 91 cows
  Number of pregnant cows: 33
[4]; TAI, P<0.05 vs control
  Calving rate: 25.27%^a
[4]; TAI, of 91 cows
  Number of calves: 23
[4]; multipara cows, ovsynch TAI, 9.68/26.58
  Increase of pregnancy rate relative to control: more than 36.42%
[4]; preparation comprising melatonin of 15 mg/mL, cows exposed to ovsynch TAI
  Increase of pregnancy rate: 11%
Holstein cows
  P (progesterone) levels: 0.18±0.02
  E2 (estradiol) levels: 11.68±0.88
  LH levels: 5.02±0.23
  FSH levels: 2.48±0.25
Holstein cows; listed as MT
  P (progesterone) levels: 0.1825±0.0235
  E2 (estradiol) levels: 11.678±0.8834
  LH levels: 5.022±0.2324
  FSH levels: 2.482±0.2463
mouse
  Expression of corpus luteum marker genes Akr1c18 and Cyp11a1: upregulate
  Level of progesterone in mouse serum: significantly increase
